# Patent US5556942A, “Glutathione S-transferase-activated compounds” (priority 1994, dated 1996)
# Columns and labels:
# [1] = target: T1, recombinant human GST M1a-1a (Homo sapiens, UniProt P09488); assay: Decomposition of compound by GST M1a-1a followed by HPLC; format: biochemical; details: for decomposition rate versus background, M1a: 37°; for IN VITRO HALF LIVES, M1a-1a: 3 μM recombinant human GST M1a-1a, compound 300 μM, disappearance by HPLC
# T1 sequence (P09488 2-218 limits assumed): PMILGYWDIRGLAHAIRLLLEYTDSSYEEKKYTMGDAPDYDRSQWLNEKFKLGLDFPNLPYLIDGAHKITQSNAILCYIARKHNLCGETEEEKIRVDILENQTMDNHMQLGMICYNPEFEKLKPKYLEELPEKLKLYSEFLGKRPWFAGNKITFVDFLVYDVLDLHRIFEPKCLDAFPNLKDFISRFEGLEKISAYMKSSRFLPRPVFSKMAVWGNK
# Protocol: (§1) The compound to be tested was dissolved in 0.2M phosphate buffer and a solution of GST was added. The final concentration was 0.3 mM test compound and 0.006 mM GST, pH 7.3 for TER 230; for TER 231 GST was 0,003 mM, pH 7.1. The solution was incubated at 37°. Decomposition was followed by HPLC. The column was J. T. Baker C18 250×4.6 mm with 5μ particles. The A buffer was 0.05M ammonium acetate, pH 5.5; 5% CH3 CN; B buffer was 70% CH3 CN in A.
# (§2) The column was run with a gradient of 20%-50% B over 15 min. then to 100% B in 3 mins; then back to 20% B over 6 mins. A 10 μL sample was injected and the flow rate was 1 ml/min. Aliquots were removed and catalytic decomposition was quenched by addition of acetic acid. Overnight HPLC utilizing an autosampler were used; the rates of decomposition were calculated by measuring the rate of disappearance of the peak versus an internal standard which was 0.06 mM of an inert peptide marker.
# (§3) In addition, half-lives were determined as described above using 3 μM recombinant human GST P1-1, A1-1 or M1a-1a starting with a concentration of the compound to be tested at 300 μM and monitoring disappearance using HPLC.
# [2] = target: recombinant human GST P1-1 (Homo sapiens, UniProt P09211); assay: Decomposition of compound by GST P1-1 followed by HPLC; format: biochemical; details: for decomposition rate versus background, P1: 37°; for IN VITRO HALF LIVES, P1-1: 3 μM recombinant human GST P1-1, compound 300 μM, disappearance by HPLC
# Protocol: as §1, §2, §3
# [3] = target: T2, recombinant human GST A1-1 (Homo sapiens, UniProt P08263); assay: Decomposition of compound by GST A1-1 followed by HPLC; format: biochemical; details: for decomposition rate versus background, A1: 37°; for IN VITRO HALF LIVES, A1-1: 3 μM recombinant human GST A1-1, compound 300 μM, disappearance by HPLC
# T2 sequence (P08263 1-222): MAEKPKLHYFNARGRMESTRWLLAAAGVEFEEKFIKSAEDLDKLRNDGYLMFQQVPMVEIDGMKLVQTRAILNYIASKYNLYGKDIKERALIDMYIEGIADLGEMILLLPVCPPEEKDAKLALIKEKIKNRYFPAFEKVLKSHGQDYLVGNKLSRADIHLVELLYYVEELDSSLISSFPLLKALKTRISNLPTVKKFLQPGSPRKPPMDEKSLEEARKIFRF
# Protocol: as §1, §2, §3
# HT29 human cancer cells = details: preliminary results
# [4] = no GST; compound 300 μM; disappearance by HPLC
# Protocol: as §1, §2, §3
# [5] = test system: human GST P1-1, A1-1, M1a-1a; details: from in vitro half lives with 3 μM GST, 300 μM compound
# Protocol: as §3
# [6] = test system: MCF-7 cells transfected with GST P1-1; details: for sensitization of cells with high P1-1 levels compared to control-vector cells: 2 hours treatment, assayed on day 5, FIGS. 4a-4c
# MX-1 tumor = details: single intraperitoneal injection, 300 mg/kg or 400 mg/kg, monitored one month; FIG. 5
# Protocol: The prodrugs of the invention were tested in Balb/C nu/nv mice. The mice were implanted subcutaneously with MX-1 tumor pieces and then treated with a single intraperitoneal injection once tumors reached an average of 100 mm^3 (which is at approximately day 18 post-implant). Tumor growth and body weight were monitored for one month following treatment. […] In FIG. 5, the squares represent controls; circles represent 300 mg/kg of TER 286; triangles represent 400 mg/kg of the same drug. The points shown are the mean ±SEM of 5-7 mice per group.
# [7] = test system: GM-CFU in femoral bone marrow
# Protocol: In the assay, B6D2F1 mice were treated with various doses of TER 286 intraperitoneally either as a single injection or as five daily injections. Femoral bone marrows were harvested 24 hours later and assayed for GM-CFU by the method of East, C. J. et al. Cancer Chemother Pharmacol (1992) 31:123-126.
# [8] = test system: MCF-7 cells selected for cyclophosphamide resistance (MCF-CTX); details: standard clonogenic assay
# Description: Also tested were MCF-7 cells selected for cyclophosphamide resistance (MCF-CTX) and its wild-type counterpart.
# [9] = 0.3 mM TER 230, 0.006 mM GST, pH 7.3, 0.2M phosphate buffer, FIG. 1
# [10] = 0.3 mM TER 231, GST 0,003 mM, pH 7.1, 0.2M phosphate buffer, FIG. 2
# [11] = TER 286 similarly tested, FIG. 3
# Chain of recombinant human GST P1-1 (P09211 2-210 limits assumed): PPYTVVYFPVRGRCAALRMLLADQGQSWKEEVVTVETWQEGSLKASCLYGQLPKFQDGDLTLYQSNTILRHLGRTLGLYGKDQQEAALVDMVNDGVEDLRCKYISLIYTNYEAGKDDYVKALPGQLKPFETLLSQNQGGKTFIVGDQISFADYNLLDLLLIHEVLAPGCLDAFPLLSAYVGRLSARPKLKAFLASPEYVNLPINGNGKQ
Molecule,toxicity to HT29 cells (HT29 human cancer cells),"IN VITRO HALF LIVES, M1a-1a [1] [min]","IN VITRO HALF LIVES, P1-1 [2] [min]","IN VITRO HALF LIVES, A1-1 [3] [min]","IN VITRO HALF LIVES, CONTROL [4] [min]",Selectivity (GST isoenzyme that selectively cleaves the prodrug) [5],sensitization of cells with high P1-1 levels compared to control-vector cells [6] [fold],also measured
"CCN(CC)P(=O)(OCCS(=O)(=O)CC(NC(=O)CCC(N)C(=O)O)C(=O)NCC(=O)O)N(CC)CC (stereo not drawn) [TER 230, γ-glutamyl-α-aminopropionyl (β-(2-ethyl-N,N,N,N,tetraethylphosphoramidate)sulfonyl)-glycine]",is not,,,,,,,"decomposition rate versus background, M1a [1, 9]: about 4 times faster than background; decomposition rate versus background, P1 [2, 9]: about 2 times faster than background; decomposition rate versus background, A1 [3, 9]: does not accelerate the decomposition of TER 230 above background"
"NC(CCC(=O)NC(CS(=O)(=O)CCOP(=O)(N(CCCl)CCCl)N(CCCl)CCCl)C(=O)NCC(=O)O)C(=O)O (stereo not drawn) [TER 231, γ-Glutamyl-α-Aminopropionyl (β-(2-ethyl-N,N,N,N-tetra(2'-chloro)ethylphosphoroamidate)sulfonyl)gl ycine]",toxic to these cells,25,110,110,350,by M1a-1a,2,"decomposition rate versus background, M1a [1, 10]: about 12 times faster than background; decomposition rate versus background, P1 [2, 10]: 5 times faster than background; decomposition rate versus background, A1 [3, 10]: 5 times faster than background; sensitivity of π-transfected MCF-7 cells versus untransfected cells ([6]; π-transfect with elevated P1 GST): more sensitive"
"NC(CCC(=O)NC(CS(=O)(=O)CCOP(=O)(N(CCCl)CCCl)N(CCCl)CCCl)C(=O)N[C@@H](C(=O)O)c1ccccc1)C(=O)O (stereo partly drawn) [TER 286, γ-glutamyl-α-Amino-β-((2-ethyl-N,N,N,N-tetra(2'-chloro) ethylphosphoroamidate)sulfonyl)propionyl-(R)-(-)phenylglycine]",,225,50,65,275,selectively cleaved by P1-1 and A1-1,4,"acceleration of cleavage versus background, M1a-1a [1, 11]: negligible acceleration of cleavage; acceleration of cleavage versus background, P1-1 [2, 11]: roughly six; acceleration of cleavage versus background, A1-1 [3, 11]: roughly six; tumor volume in treated mice compared to controls (MX-1 tumor): greatly diminished; GM-CFU, % of controls ([7]; mouse, in vivo): up to 180%; optimum dosage range for bone marrow GM-CFU ([7]; mouse, in vivo): 100 to 200 mg/kg; factor by which CTX-resistant cells are more sensitive than CTX-sensitive cells [8]: 1.8"
"N[C@@H](Cc1ccc(N(CCCl)CCCl)cc1)C(=O)O [melphalan, reference compound]",,,,,,,,toxicity with respect to bone marrow (GM-CFU) ([7]; FIG. 7): extreme toxicity
"γ-glutamyl-α-Amino-β-(1-phenyl, (2'ethyl-N,N,N,N-tetra(2'-chloro)ethylphosphoroamidate)sulfonyl) propionyl glycine [TER 296]",,50,2.5,200,,selectively cleaved by P1-1,,
"γ-glutamyl-α-Amino-β-((2-ethyl-N,N,N,N-tetra(2'-chloro)eth ylphosphoroamidate)sulfonyl)propionylphenylalanine [TER 303]",,200,310,45,,selectively cleaved by A1-1,,
